In patent US9586951B2 (FUJIFILM Corporation, priority 2013, dated 2017) one finds IC50 data, which are given here for 13 compounds.

T1 sequence (Q13315 whole entry): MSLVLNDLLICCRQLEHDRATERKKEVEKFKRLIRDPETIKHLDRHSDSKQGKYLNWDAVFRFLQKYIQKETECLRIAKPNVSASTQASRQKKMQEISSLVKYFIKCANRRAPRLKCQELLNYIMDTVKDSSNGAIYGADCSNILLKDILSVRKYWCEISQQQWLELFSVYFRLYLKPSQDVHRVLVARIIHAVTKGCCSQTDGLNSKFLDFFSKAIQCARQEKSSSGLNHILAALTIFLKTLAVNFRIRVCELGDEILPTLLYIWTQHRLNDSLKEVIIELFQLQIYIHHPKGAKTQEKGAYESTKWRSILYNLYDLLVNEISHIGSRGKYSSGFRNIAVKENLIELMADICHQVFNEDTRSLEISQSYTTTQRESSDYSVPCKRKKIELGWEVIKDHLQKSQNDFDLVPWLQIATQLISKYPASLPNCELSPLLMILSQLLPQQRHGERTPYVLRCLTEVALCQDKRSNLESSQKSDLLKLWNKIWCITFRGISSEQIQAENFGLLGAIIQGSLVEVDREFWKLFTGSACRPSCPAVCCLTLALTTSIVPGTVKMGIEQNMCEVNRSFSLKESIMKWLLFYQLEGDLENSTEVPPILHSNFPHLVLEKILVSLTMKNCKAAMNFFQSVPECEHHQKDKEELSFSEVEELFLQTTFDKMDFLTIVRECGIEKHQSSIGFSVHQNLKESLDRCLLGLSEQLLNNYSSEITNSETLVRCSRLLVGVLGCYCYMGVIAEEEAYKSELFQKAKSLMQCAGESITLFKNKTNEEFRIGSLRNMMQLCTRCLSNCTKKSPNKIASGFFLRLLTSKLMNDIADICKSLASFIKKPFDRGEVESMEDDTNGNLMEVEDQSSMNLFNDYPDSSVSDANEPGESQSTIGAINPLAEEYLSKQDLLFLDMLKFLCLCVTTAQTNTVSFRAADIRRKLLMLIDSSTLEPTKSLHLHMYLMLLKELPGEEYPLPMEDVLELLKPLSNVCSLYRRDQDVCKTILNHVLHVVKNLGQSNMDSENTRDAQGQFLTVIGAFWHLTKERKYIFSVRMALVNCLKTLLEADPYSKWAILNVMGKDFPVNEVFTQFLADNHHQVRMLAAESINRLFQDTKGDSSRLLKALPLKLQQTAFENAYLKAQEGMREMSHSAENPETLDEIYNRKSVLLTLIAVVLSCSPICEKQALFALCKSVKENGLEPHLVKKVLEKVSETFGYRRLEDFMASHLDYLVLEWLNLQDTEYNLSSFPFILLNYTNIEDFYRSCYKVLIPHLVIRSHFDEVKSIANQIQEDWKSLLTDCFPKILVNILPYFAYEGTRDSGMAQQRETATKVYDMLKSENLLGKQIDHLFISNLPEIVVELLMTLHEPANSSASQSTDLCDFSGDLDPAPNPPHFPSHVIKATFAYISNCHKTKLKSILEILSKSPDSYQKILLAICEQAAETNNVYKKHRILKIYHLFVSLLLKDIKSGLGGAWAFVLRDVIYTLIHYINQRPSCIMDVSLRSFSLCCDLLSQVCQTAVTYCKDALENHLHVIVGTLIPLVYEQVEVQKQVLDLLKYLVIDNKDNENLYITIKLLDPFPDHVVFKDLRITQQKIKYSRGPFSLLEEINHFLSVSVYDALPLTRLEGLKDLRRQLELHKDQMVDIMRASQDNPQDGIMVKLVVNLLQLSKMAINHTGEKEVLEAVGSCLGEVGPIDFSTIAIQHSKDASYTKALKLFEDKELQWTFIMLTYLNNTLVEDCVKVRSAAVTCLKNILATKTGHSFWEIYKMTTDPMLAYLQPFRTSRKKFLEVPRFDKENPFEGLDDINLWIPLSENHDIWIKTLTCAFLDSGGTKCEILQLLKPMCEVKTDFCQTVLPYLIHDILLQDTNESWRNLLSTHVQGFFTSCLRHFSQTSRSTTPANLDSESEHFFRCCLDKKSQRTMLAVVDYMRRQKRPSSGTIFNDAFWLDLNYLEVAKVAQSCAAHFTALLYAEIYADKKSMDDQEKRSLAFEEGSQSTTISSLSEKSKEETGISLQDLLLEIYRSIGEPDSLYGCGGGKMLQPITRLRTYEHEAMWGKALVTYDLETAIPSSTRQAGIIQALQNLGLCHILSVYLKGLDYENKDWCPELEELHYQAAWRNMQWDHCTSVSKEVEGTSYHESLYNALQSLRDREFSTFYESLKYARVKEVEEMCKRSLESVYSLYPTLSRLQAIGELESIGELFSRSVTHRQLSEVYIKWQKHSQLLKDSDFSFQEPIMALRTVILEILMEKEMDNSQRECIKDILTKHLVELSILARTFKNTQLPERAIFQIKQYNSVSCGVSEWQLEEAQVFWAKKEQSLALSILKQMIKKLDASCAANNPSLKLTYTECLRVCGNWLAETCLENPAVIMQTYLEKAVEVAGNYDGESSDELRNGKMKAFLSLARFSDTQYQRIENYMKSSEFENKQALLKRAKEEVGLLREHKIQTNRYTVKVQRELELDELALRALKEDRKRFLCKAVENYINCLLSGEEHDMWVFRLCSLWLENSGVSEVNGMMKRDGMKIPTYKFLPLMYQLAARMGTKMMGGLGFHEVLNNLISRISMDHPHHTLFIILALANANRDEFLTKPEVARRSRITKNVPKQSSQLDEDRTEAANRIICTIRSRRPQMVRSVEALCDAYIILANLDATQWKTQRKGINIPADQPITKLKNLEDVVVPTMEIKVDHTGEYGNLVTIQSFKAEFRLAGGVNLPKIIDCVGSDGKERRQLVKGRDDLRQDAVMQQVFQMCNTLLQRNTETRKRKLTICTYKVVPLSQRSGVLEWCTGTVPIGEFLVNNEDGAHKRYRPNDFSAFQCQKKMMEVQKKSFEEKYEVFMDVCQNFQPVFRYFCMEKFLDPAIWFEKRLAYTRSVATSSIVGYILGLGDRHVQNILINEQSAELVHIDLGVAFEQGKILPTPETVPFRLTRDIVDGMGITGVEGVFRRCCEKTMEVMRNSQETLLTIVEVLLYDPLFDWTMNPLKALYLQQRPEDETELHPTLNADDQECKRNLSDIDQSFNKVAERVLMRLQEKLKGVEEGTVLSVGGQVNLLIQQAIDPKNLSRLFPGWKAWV

The test addresses T1, ATM (Homo sapiens, UniProt Q13315).
T1 construct: detecting phosphorylation of Chk2 in a human non-small cell lung cancer cell line NCI-H460 (ATCC company); host or cells: NCI-H460 human non-small cell lung cancer cells
Briefly: ATM inhibition test (phosphorylation of Chk2 generated by ionizing radiation, AlphaScreen SureFire). The test is classed as cell-based. The settings on record: phosphorylated Chk2 in NCI-H460 cells, ionizing radiation 8Gy, 1 hour after test compound treatment; read-out: ATM inhibitory activity. The method, boiled down: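 Human NCI-H460 lung cancer cells were treated with compound for 1 h, then irradiated at 8Gy and incubated 1 h at 37° C. Phospho-Chk2 was quantified by AlphaScreen SureFire; inhibition % was normalised between irradiated untreated and non-irradiated untreated wells.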
A general note: Alpha assays give light when donor and acceptor beads are brought close together.
`Cc1ccc(C(Nc2ccc3c(c2)Sc2cccc(-c4cc(N5CCOCC5)cc(=O)[nH]4)c2S3)C2CCN(CC(F)F)CC2)nc1` (stereo not shown) [Example 1-58, 6-(7-(((1-(2,2-difluoroethyl)piperidin-4-yl)(5-methylpyridin-2-yl)methyl)amino)thianthren-1-yl)-4-morpholinopyridin-2(1H)-one]: the IC50 was less than 100 nM.

Regarding `CC(Nc1ccc2c(c1)Cc1cccc(-c3cc(N4CCOCC4)cc(=O)[nH]3)c1O2)c1ccnc(C#N)n1` (stereo not shown) [Example 2-14-58, 4-(1-((5-(4-Morpholino-6-oxo-1,6-dihydropyridin-2-yl)-9H-xanthen-2-yl)amino)ethyl)pyrimidine-2-carbonitrile], the IC50 was 100 to 500 nM.

For the compound `O=c1cc(N2CCOCC2)cc(-c2cccc3c2Sc2ccc(N[C@@H]4COC[C@H]4N4CCOCC4)cc2S3)[nH]1` (relative stereo) [Example 1-60, Trans-4-morpholino-6-(7-((4-morpholinotetrahydrofuran-3-yl)amino)thianthren-1-yl)pyridin-2(1H)-one], the IC50 is less than 100 nM.

For the compound “4-Morpholino-6-(7-((1-(5- (morpholino methyl) pyrimidin-2-yl)ethyl) amino)thianthren-1- yl)pyridin-2(1H)-one [Example 1-12-95]”, the IC50 fell in the range of 100 to 500 nM.

`COc1ccc(CCN2CCC(Nc3ccc4c(c3)Cc3cccc(-c5cc(N6CCOCC6)cc(=O)[nH]5)c3O4)CC2)cc1` [Example 2-30-2, 6-(7-((1-(4-Methoxyphenethyl)piperidin-4-yl)amino)-9H-xanthen-4-yl)-4-morpholino pyridin-2 (1H)-one]: the IC50 lay within 100 to 500 nM.

As to `O=c1cc(N2CCOCC2)cc(-c2cccc3c2Oc2ccc(NC4CCN(CCc5ccc(Cl)cc5)CC4)cc2C3)[nH]1` [Example 2-30-6, 6-(7-((1-(4-Chlorophenethyl)piperidin-4-yl)amino)-9H-xanthen-4-yl)-4-morpholino pyridin-2 (1H)-one], the IC50 lay within 500 to 2000 nM.

For the compound `O=c1cc(N2CCOCC2)cc(-c2ccc(F)c3c2Oc2ccc(NCc4cccc(Cl)n4)cc2C3)[nH]1` [Example 2-44-1, 6-(7-(((6-Chloropyridin-2-yl)methyl)amino)-1-fluoro-9H-xanthen-4-yl)-4-morpholinopyridin-2(1H)-one], the IC50 was 100 to 500 nM.

Turning to `CCC(CNc1ccc2c(c1)Sc1cccc(-c3cc(N4CCOCC4)cc(=O)[nH]3)c1S2)N1CCOCC1` (stereo not shown) [Example 1-9-1, 4-morpholino-6-(7-((2-morpholinobutyl)amino)thianthren-1-yl)pyridin-2(1H)-one], the IC50 was 100 to 500 nM.

Regarding `O=c1cc(N2CCOCC2)cc(-c2cccc3c2Oc2ccc(NCCN4CCOCC4)cc2S3)[nH]1` [Example 4-11, 4-Morpholino-6-(8-((2-morpholinoethyl)amino)phenoxathiin-4-yl)pyridin-2(1H)-one], the IC50 was 100 to 500 nM.

Regarding `Cc1ccnc(C(CO)Nc2ccc3c(c2)Cc2cccc(-c4cc(N5CCOCC5)cc(=O)[nH]4)c2O3)c1` (single isomer, unassigned) [Example 2-14-91, 6-(7-((2-hydroxy-1-(4-methylpyridin-2-yl)ethyl)amino)-9H-xanthen-4-yl)-4-morpholinopyridin-2(1H)-one], the IC50 was 100 to 500 nM.

For the compound `O=c1cc(N2CCOCC2)cc(-c2cccc3c2Sc2ccc(NCCN4CCC(F)(F)CC4)cc2S3)[nH]1` [Example 1-10-1, 6-(7-((2-(4,4-Difluoropiperidin-1-yl)ethyl)amino)thianthren-1-yl)-4-morpholinopyridin-2(1H)-one], the IC50 fell in the range of 100 to 500 nM.

On to `O=c1cc(N2CCOCC2)cc(-c2cccc3c2Oc2ccc(NCc4cccc(C5CC5)n4)cc2C3)[nH]1` [Example 2-2-68, 6-(7-(((6-Cyclopropylpyridin-2-yl)methyl)amino)-9H-xanthen-4-yl)-4-morpholino pyridin-2(1H)-one], for which the IC50 lay in the range of 100 to 500 nM.

As to `Cc1nccc(C(C)Nc2ccc3c(c2)Sc2cccc(-c4cc(N5CCOCC5)cc(=O)[nH]4)c2S3)n1` (stereo not shown) [Example 1-12-80, 6-(7-((1-(2-Methylpyrimidin-4-yl)ethyl)amino)thianthren-1-yl)-4-morpholino pyridin-2(1H)-one], the IC50 was 100 to 500 nM.
